In one data set the test system is cleaved caspase-3. The data set can be described thus: Cleaved caspase-3 Western blot in H9c2 cardiomyocytes. It counts as cell-based, rat. From the text: Protein was harvested using cell lysis buffer (Cell Signaling Technology, Danvers, Mass.) with a complete protease inhibitor cocktail (Roche, Mannheim, Germany) prior to homogenizing via sonification. Homogenized protein from treated HPH, H9c2, BT549, and MDA-MB-231 cells were resolved on NuPage Novex Bis-Tris 4-12% gels (Life Technologies) or NuPage Novex Bis-Tris 12% gel and transferred through electrophoresis onto immobilon-P polyvinylidene difluoride (PVDF) membranes. Membranes were blocked with 5% BSA or 5% milk in Tris-Buffer saline with Tween 20 (TBST). Further, membranes were incubated with specific antibodies against human CYP2B6 (1:1000, Abcam), CYP3A4 (1:1000, Millipore Sigma), HO-1 (1:1000, Abcam), cleaved caspase-3 (1:1000 Cell Signaling Technologies), Nrf2 (1:1000, Abcam), TATA-Binding Protein (1:500, Santa Cruz) β-actin (1:3000, Millipore Sigma) at 4° C. overnight. Following overnight incubation, horseradish peroxidase goat anti-mouse or anti-rabbit IgG antibodies were used for secondary incubation. Membranes were developed using SuperSignal West Pico Chemiluminescent Substrate (Thermo Scientific) or Radiance Q (Azure). Two TNBC cell lines, cardiomyocytes, and HPH protein samples were isolated and resolved on a 4-12% or 12% SDS PAGE gel followed by electrophoretic transfer to a PVDF membrane. Membranes were probed 1:1000 for CYP2B6, CYP3A4, Nrf2, cleaved caspase 3, and HO-1 using β-actin (1:3000) or TBP (1:500) as a loading control.
Background: A western blot detects proteins with antibodies after separation by electrophoresis.

The next data set deals with HO-1. The data set can be described thus: HO-1 expression in human iPSC-derived cardiomyocytes. Type of data set: cell-based. As to conditions: human iPSC-derived cardiomyocytes, 1, 5, 10 μM. The method, then:
Immortalized triple negative breast cancer cell lines MDA-MB-231 and BT549 were obtained from ATCC (Rockville, Md.). Additionally, the h9c2 cell line was purchased from ATCC (Rockville, Md.). […] Human iPSC-derived cardiomyocytes were maintained in Mtesr plus and supplemented according to protocol. These cells were treated for 2 hrs or an overnight as indicated. Following a 2 hr pretreatment, cells were co-treated with DOX at indicated concentrations for 6 or 22 hours. Following the overnight treatments, RNA or protein was isolated. HPH were seeded in collagen-coated 24 well plates and pretreated for 24 hrs. BT549 were seeded on inverted coverslips. After a 24 hr pretreatment, hepatocytes were co-administered as indicated and coverslips were inserted. The cell lines were used for less than 60 passages. After 24 h treatment, HPH, BT549, MDA-MB-231, and H9c2 cells were washed and a phenol-chloroform extraction was used to isolate total RNA with the TRIzol reagent (ThermoFisher, Rockford, Ill.). Reverse transcription was performed on extracted RNA (1 μg) to produce cDNA using the High Capacity cDNA Archive kit according to manufacturer's instructions (Applied Biosystems, Foster, Calif.). […] Quantification of expression changes was done by the 2^ΔΔCt method, normalizing to GAPDH as the housekeeping gene and determining the fold change compared to control values (n=3).

The subject of data set [1] is iPSC-derived cardiomyocytes. The data set can be described thus: Cell viability, DOX-induced cytotoxicity in iPSC-derived cardiomyocytes. It counts as cell-based, human. As to conditions: co-administration with DOX. The procedure: (§1) Immortalized triple negative breast cancer cell lines MDA-MB-231 and BT549 were obtained from ATCC (Rockville, Md.). Additionally, the h9c2 cell line was purchased from ATCC (Rockville, Md.). […] Human iPSC-derived cardiomyocytes were maintained in Mtesr plus and supplemented according to protocol. These cells were treated for 2 hrs or an overnight as indicated. Following a 2 hr pretreatment, cells were co-treated with DOX at indicated concentrations for 6 or 22 hours. Following the overnight treatments, RNA or protein was isolated. HPH were seeded in collagen-coated 24 well plates and pretreated for 24 hrs. BT549 were seeded on inverted coverslips. After a 24 hr pretreatment, hepatocytes were co-administered as indicated and coverslips were inserted. The cell lines were used for less than 60 passages. H9c2 cells were seeded 0.8×10^5 in 24-well plates. […] A Cell Counting Kit-8 (Enzo) assay was carried out. Cell viability was described as a percent of vehicle control (0.1% DMSO).

In the next data set the test system is MDA-MB-231 cells. The data set can be described thus: Cell viability assay, DOX-induced toxicity in MDA-MB-231 cells. It counts as cell-based. As to conditions: MDA-MB-231, DOX 2.5 μM. The method, then:
as §1

Data set [2] deals with BT549 cells. Nature of the data set: Cell viability assay, DOX-induced toxicity in BT549 cells. It counts as cell-based. As to conditions: BT549, DOX 2.5 μM. The procedure: as §1
Data set [3] deals with BT549 cells. Nature of the data set: HPH/BT549 co-culture, CPA cytotoxicity (CCK8). As to conditions: HPH/BT549 coculture, DL7076 10 μM + CPA. It counts as cell-based. The procedure:
HPH were cultured in collagen-coated 24 well plates and pre-treated with vehicle control (0.1% DMSO), CITCO (1 μM) or DL7076 (5 μM or 10 μM) for 24 h. […] Following the 24 h pre-treatment, coverslips were combined in hepatocyte seeded wells and exposed to designated concentrations of cyclophosphamide in the presence or absence of DL7076 for various time intervals, as indicated.
H9c2 cells were seeded 0.8×10^5 in 24-well plates. Following cell attachment, a 2 h pre-treatment with vehicle control (0.1% DMSO), SFN (2.5 μM) or DL7076 (1 μM, 5 μM, or 10 μM) was done followed by doxorubicin (2.5 μM) exposure for 22 h. Co-culture cells were assembled and treated with cyclophosphamide and doxorubicin as indicated. A Cell Counting Kit-8 (Enzo) assay was carried out. Cell viability was described as a percent of vehicle control (0.1% DMSO). Cardiomyocyte, human iPSC-derived cardiomyocytes, and BT549 viability was determined with a 1 hr incubation of 6% CCK8 in WEM.

On to `O=C(NCCN=C=S)c1c(-c2ccc3ccccc3c2)nc2sccn12` [DL7076, N-(2-Isothiocyanatoethyl)-6-(naphthalen-2-yl)imidazo[2,1-b]thiazole-5-carboxamide], for which the “cleaved caspase-3 expression with pretreatment” value in the data set on cleaved caspase-3 (H9c2, DL7076 pretreatment + DOX 2.5 μM) is given as “notably reduced in a concentration dependent manner”. Besides, the “cleaved caspase-3 expression, compound alone” value with cleaved caspase-3 (H9c2, without DOX) is “no expression in cleaved caspase-3”. Besides, the HO-1 expression result in the data set on HO-1 was “concentration-dependently induced”. For the same compound, the “reversal of DOX-induced cytotoxicity” value in data set [1] is “efficiently reversed by co-administration of DL7076”. Also, the “reversal of DOX-induced toxicity (viability)” value in the data set on MDA-MB-231 cells and with BT549 cells [2] was “this efficient reversal was not shown” each time. Also, the “CPA cytotoxicity in BT549 cells with cotreatment” value with BT549 cells [3] is given as “significantly enhanced the cytotoxicity of CPA”.
